Experimental data reported in ChEMBL document CHEMBL5352465, “Small molecules containing chalcogen elements (S, Se, Te) as new warhead to fight neglected tropical diseases” (Eur J Med Chem, 2023).
Blank lines part the entries; values can stand above or below the compound they belong to.

What was measured:
Leishmania panamensis [1] = assay: Antileishmanial activity against Leishmania panamensis MHOM/CO/87/UA140-EpiR-GFP strain amastigotes assessed as inhibition of parasite growth incubated for 72 hrs by flow cytometric analysis; type: functional, organism-based
Leishmania panamensis [2] = assay: Antileishmanial activity against Leishmania panamensis MHOM/CO/87/UA140-EpiR-GFP strain promastigotes assessed as inhibition of parasite growth incubated for 72 hrs by flow cytometric analysis; type: functional, organism-based
Trypanosoma cruzi [3] = assay: Antitrypanosomal activity against Trypanosoma cruzi Y strain epimastigotes assessed as parasite growth inhibition incubated for 48 hrs by spectrophotometric analysis; type: functional, organism-based
Trypanosoma brucei = assay: Antitrypanosomal activity against bloodstream Trypanosoma brucei 427 strain assessed as parasite growth inhibition measured after 24 hrs by propidium iodide staining based flow cytometer method; type: functional, organism-based; conditions: Trypanosoma brucei, 427, 24 h
Leishmania amazonensis = assay: Antileishmanial activity against Leishmania amazonensis amastigotes assessed as inhibition of parasite growth; type: functional, organism-based
Trypanosoma cruzi [4] = assay: Antitrypanosomal activity against Trypanosoma cruzi epimastigote assessed as parasite growth inhibition by optical density based analysis; type: functional, organism-based
[5] = molecular target: Cruzipain (Trypanosoma cruzi) (UniProt P25779); assay: Inhibition of Trypanosoma cruzi recombinant Cruzaine using Z-FR-AMC as substrate preincubated for 10 mins followed by substrate addition by fluorimeter analysis
Chain of Cruzipain (Trypanosoma cruzi) (P25779 123-467 limits assumed): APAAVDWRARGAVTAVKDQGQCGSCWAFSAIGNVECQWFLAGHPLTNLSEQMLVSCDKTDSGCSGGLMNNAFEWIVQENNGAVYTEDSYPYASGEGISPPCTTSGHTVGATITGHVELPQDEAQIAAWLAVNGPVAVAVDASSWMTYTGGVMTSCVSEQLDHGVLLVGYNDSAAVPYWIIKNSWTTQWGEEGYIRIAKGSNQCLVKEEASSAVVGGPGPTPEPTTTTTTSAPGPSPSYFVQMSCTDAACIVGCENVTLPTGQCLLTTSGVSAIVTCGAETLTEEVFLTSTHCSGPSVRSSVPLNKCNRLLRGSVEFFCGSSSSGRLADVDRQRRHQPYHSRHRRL

SMILES: O=C1C=C(c2ccc(C(F)(F)F)cc2)S(=O)(=O)c2ccc(F)cc21
IC50 (Leishmania panamensis [1]): 6.72 µM | IC50 (Leishmania panamensis [2]): 3.24 µM

IC50 (Trypanosoma cruzi [3]): 97.7 µM
SMILES: NS(=O)(=O)c1ccc(O)c([N+](=O)[O-])c1

IC50 (Trypanosoma brucei): 2.7 µM
SMILES: CC(=O)OCC1OC([Se][Se]C2O[C@H](COC(C)=O)[C@@H](OC(C)=O)[C@@H](OC(C)=O)[C@H]2OC(C)=O)[C@H](OC(C)=O)[C@@H](OC(C)=O)C1OC(C)=O (some centres not stated)

SMILES: Cc1ccc([Te]Cc2ncc(-c3ccc(S(C)(=O)=O)cc3)[se]2)cc1
IC50 (Leishmania amazonensis): 6.14 µM

IC50 (Trypanosoma cruzi [4]): 27 µM | inhibition [5]: 70%
SMILES: NC(=S)N/N=C/c1ccc[nH]1
